Assay results reported in patent publication US8957026B2, “Beta-catenin targeting peptides and uses thereof” (President and Fellows of Harvard College, priority 2010, dated 2015).
Entries after “also recorded” stand apart in the source; their conditions may differ. Positions of bridges follow the written chain, without caps; N, C: chain ends. Non-standard residues stand in square brackets, D forms with d. Residues, ends and D or L forms follow the SMILES beside them. *: point of attachment. FITC = O=C1OC2(c3ccc(O)cc3Oc3cc(O)ccc32)c2ccc(NC(=S)*)cc21; S5 = C=CCCC[C@](C)(N)C(=O)O; βAla = NCCC(=O)O

What was measured:
[1] = target: T1, N-terminally GST-tagged human β-catenin (Homo sapiens, UniProt P35222); experiment: Fluorescence polarization assay with FITC-labeled peptides and GST-tagged β-catenin; assay type: binding; conditions: for increase in binding affinity to β-catenin compared to the wild type sequence (ax-WT): versus Axin wild type peptide
T1 sequence (P35222 1-781): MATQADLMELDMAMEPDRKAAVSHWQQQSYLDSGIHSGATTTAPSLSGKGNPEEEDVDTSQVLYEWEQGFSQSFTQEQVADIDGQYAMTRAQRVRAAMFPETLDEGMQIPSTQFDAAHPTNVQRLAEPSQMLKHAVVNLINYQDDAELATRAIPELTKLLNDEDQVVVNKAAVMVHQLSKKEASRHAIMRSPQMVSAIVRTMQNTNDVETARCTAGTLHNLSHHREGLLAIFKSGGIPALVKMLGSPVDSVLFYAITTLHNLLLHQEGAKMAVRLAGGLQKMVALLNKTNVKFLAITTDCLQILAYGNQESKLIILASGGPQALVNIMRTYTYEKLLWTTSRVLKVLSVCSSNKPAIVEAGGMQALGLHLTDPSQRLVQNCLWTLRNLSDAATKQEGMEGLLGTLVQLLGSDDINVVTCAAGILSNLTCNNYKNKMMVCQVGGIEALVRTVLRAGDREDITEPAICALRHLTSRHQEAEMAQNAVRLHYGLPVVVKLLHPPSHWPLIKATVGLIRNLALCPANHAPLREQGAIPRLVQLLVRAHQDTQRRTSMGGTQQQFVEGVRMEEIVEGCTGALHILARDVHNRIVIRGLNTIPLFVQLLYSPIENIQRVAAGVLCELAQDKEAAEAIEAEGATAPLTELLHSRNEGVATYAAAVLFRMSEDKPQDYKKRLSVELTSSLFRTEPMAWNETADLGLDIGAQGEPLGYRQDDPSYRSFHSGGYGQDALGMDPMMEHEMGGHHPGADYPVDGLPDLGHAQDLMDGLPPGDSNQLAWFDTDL
Description: FIG. 4 depicts (a) superimposed crystal structures of TCF4 (PDB ID: 2GL7)[14] and Axin (PDB ID: 1QZ7)[15] bound to β-catenin; (b) sequences of modified peptides with NCBI accession and covered amino acids (* amino acids 29-37 were replaced by two βAla); (c) fluorescence polarization assays using FITC-labeled peptides and N-terminally GST-tagged human β-catenin (with corresponding Kds).
FIG. 7 depicts (a) fluorescently labeled peptide sequences resulting from phage display affinity optimization (entries 1, 4 and 17/18 in FIG. 6b); (b) fluorescence polarization assay with fluorescently labeled peptides and N-terminally GST-tagged human β-catenin (with corresponding Kds).
Peptide sequences derived from TCF4 and Axin were synthesized and fluorescently labeled (FIG. 4b) and the affinity of both binding domains to β-catenin was assessed. […] Therefore, the Axin derivative was considered to be the most promising candidate for the hydrocarbon stapling approach. It combines a relatively short and helical peptide sequence (15 amino acids) with moderate binding of β-catenin (Kd of ˜5 μM).

SW480 cells = experiment: Cell penetration assay monitoring fluorescence of FITC-labeled peptides; assay type: cell-based; conditions: 10 μM peptide in 10% serum, 24 h, confocal microscope
Protocol: Besides its affinity to β-catenin it is cell permeability that impacts the capability of a peptide to interfere with the intracellular target. Therefore, the ability to penetrate cells was tested by monitoring fluorescence of the fluorescein(FITC)-labeled peptides.

[2] = Circular dichroism spectra with calculated helicities; assay type: physicochemical
Description: Based on the crystal structure of the Axin/β-catenin complex there are four residues (yellow, FIG. 5a) that are not involved in β-catenin binding[15] and should be suitable for modification without affecting binding. Taking into consideration that only i,i+4 (one helix turn) and i,i+7 5 (two helix turns) positioning of modified residues allows sufficient cross-linking[8] three hydrocarbon stapled sequences (STAX-1, 2 and 3, FIG. 5b) were designed. Circular dichroism spectra of the fluorescently labeled peptides were recorded allowing the calculation of helicities (FIG. 5c). […] Therefore, STAX-3 was chosen as starting point for further optimizations.

[3] = test system: Wnt-dependent luciferase reporter; experiment: Dual-luciferase Wnt-dependent reporter gene assay; assay type: cell-based; conditions: firefly signal normalized to Renilla luciferase control
Protocol: FIG. 10 depicts (a) stapled peptide sequences with corresponding Kd to β-catenin (blue boxes mark mutations meant to disrupt binding to (β-catenin, charges at pH 7.5 are calculated values); (b) inhibition of a Wnt-dependent luciferase reporter (dual-luciferase assay: signal was normalized to Renilla luciferase control); (c) dose-dependent effect of STAX-147 and STAX-160 in the dual-luciferase assay.
The cell penetrating stapled peptides were tested for their effects on transcriptional activity using an established reporter gene assay. In this dual-luciferase assay firefly luciferase is transcriptionally regulated by constitutively activated Wnt signaling. The firefly signal is normalized to the Renilla luciferase control.

Structure (SMILES) | increase in binding affinity to β-catenin compared to the wild type sequence (ax-WT) [1] | cell permeability (SW480 cells) | change of affinity to β-catenin (in words) ([1]; compared to wild type or parent peptide) | helicity ([2]; calculated from circular dichroism spectra of the fluorescently labeled peptide) [%] | change of helicity (in words) ([2]; compared to the wild type sequence (ax-WT)) | increase in helicity compared to the wild type sequence (ax-WT) ([2]; versus ax-WT) [fold] | effect on Wnt-dependent luciferase reporter activity [3] | increase in binding affinity to β-catenin upon sequence modification ([1]; versus the preceding stapled peptide of the optimization series)
CC[C@H](C)[C@H](NC(=O)[C@H](CO)NC(=O)[C@H](CCC(=O)O)NC(=O)[C@@H]1CCCN1C(=O)[C@H](CC(N)=O)NC(=O)[C@H](CCC(=O)O)NC(=O)CCNC(=S)Nc1ccc2c(c1)C(=O)OC21c2ccc(O)cc2Oc2cc(O)ccc21)C(=O)N[C@@H](CC(C)C)C(=O)N[C@@H](CC(=O)O)C(=O)N[C@@H](CCC(=O)O)C(=O)N[C@@H](Cc1c[nH]cn1)C(=O)N[C@H](C(=O)N[C@@H](CCC(N)=O)C(=O)N[C@@H](CCCNC(=N)N)C(=O)N[C@H](C(=O)N[C@@H](Cc1c[nH]c2ccccc12)C(=O)N[C@@H](CCCNC(=N)N)C(N)=O)C(C)C)C(C)C [phage-17/18] ({FITC-βAla}-ENPESILDEHVQRVWR-NH2) | 8 fold |  |  |  |  |  |  | 
CC[C@H](C)[C@H](NC(=O)[C@H](CO)NC(=O)[C@H](CCC(=O)O)NC(=O)[C@@H]1CCCN1C(=O)[C@H](Cc1c[nH]c2ccccc12)NC(=O)[C@H](CCCNC(=N)N)NC(=O)CCNC(=S)Nc1ccc2c(c1)C(=O)OC21c2ccc(O)cc2Oc2cc(O)ccc21)C(=O)N[C@@H](CC(C)C)C(=O)N[C@@H](CC(=O)O)C(=O)N[C@@H](CCC(=O)O)C(=O)N[C@@H](Cc1c[nH]cn1)C(=O)N[C@@H](Cc1c[nH]c2ccccc12)C(=O)N[C@@H](CCC(=O)O)C(=O)N[C@@H](CCCNC(=N)N)C(=O)N[C@H](C(=O)N[C@@H](CCSC)C(=O)N[C@@H](CCCNC(=N)N)C(N)=O)C(C)C [phage-01] ({FITC-βAla}-RWPESILDEHWERVMR-NH2) | 39 fold |  |  |  |  |  |  | 
CC[C@H](C)[C@@H]1NC(=O)[C@@](C)(NC(=O)[C@H](CCC(=O)O)NC(=O)[C@@H]2CCCN2C(=O)[C@H](CC(N)=O)NC(=O)[C@H](CCC(=O)O)NC(=O)CCNC(=S)Nc2ccc3c(c2)C(=O)OC32c3ccc(O)cc3Oc3cc(O)ccc32)CCCC=CCCC[C@@](C)(C(=O)N[C@@H](Cc2c[nH]cn2)C(=O)N[C@H](C(=O)N[C@@H](CCC(N)=O)C(=O)N[C@@H](CCCNC(=N)N)C(=O)N[C@H](C(=O)N[C@@H](CCSC)C(N)=O)C(C)C)C(C)C)NC(=O)[C@H](CC(=O)O)NC(=O)[C@H](CC(C)C)NC1=O [STAX-3] ({FITC-βAla}-ENPE[S5]ILD[S5]HVQRVM-NH2; staple 5-9) | 80 fold | non cell permeable | increased | 51 | increased | 3.4 |  | 
CC[C@H](C)[C@@H]1NC(=O)[C@@](C)(NC(=O)[C@H](CCC(N)=O)NC(=O)[C@@H]2CCCN2C(=O)[C@H](Cc2c[nH]c3ccccc23)NC(=O)[C@H](CCCNC(=N)N)NC(=O)COCCOCCNC(=S)Nc2ccc3c(c2)C(=O)OC32c3ccc(O)cc3Oc3cc(O)ccc32)CCCC=CCCC[C@@](C)(C(=O)N[C@@H](Cc2c[nH]cn2)C(=O)N[C@H](C(=O)N[C@@H](CCCNC(=N)N)C(=O)N[C@@H](CCCNC(=N)N)C(=O)N[C@H](C(=O)N[C@@H](Cc2c[nH]c3ccccc23)C(=O)N[C@@H](CCCNC(=N)N)C(N)=O)C(C)C)C(C)C)NC(=O)[C@H](CC(=O)O)NC(=O)[C@H](CC(C)C)NC1=O [STAX-090] | more than 600 fold | increased further; also recorded: good permeability |  |  |  |  | repression of luciferase activity | two fold increase
